Format in all cases: in vivo
One test concerns TC-1 tumor. Description: TC-1 tumor regression screening of peptides in C57/B6 mice. On the set-up: key: Positive: a positive T-cell response was a T-cell response that resulted in regression of the tumor. The conditions noted are these: TC-1 tumors in C57/B6 mice, vaccinated day 7, peptide alone or with cationic lipid. An excerpt: (§1) Sequence selection was accomplished herein using both tumor regression studies in C57/B6 mice, and interferon-gamma ELISPOT studies in HLA-A2 humanized transgenic mice. […] In the HLA-A2 mouse model ELISPOT study, at least 20 spots per million splenocytes was regarded to be a positive response.
This example illustrates the evaluation or screening of several HPV16 E7 peptides in the TC-1 mouse tumor regression model for their effective processing and presentation of the key epitopes leading to HPV-specific T-cell induction and subsequent tumor regression.
In the tumor regression screening studies mice were implanted with 100,000 TC-1 cells on day 0. On day 7, once the tumors were well established the mice were vaccinated with the specific peptide sequences, either formulated alone or in combination with cationic lipids such as DOTMA, DOEPC or R-DOTAP to facilitate up-take and presentation. In these studies, the vaccine contained the selected peptide at a concentration of 0.1-3.0 mg/mL and cationic liposomes at a concentration of 0.2-3.0 mg/mL. In the cases where the peptide sequences were lipidated by attaching a palmitoyl chain, the peptides were simply mixed with the cationic liposomes prior to vaccination. In the case of the non-lipidated peptides, the liposomes were made and peptides encapsulated by traditional thin film liposome preparation methods (F Szoka, and D Papahadjopoulos, Comparative Properties and Methods of Preparation of Lipid Vesicles (Liposomes), Annual Review of Biophysics and Bioengineering, Vol. 9:467-508, 1980). Other methods well known to those skilled in the art may also have been used.
A sample tumor regression plot showing results for peptides corresponding to SEQ ID NO: 1 (blank square), SEQ ID NOS: 7, 8, 31 32 and 31 (solid black circle), SEQ ID NO: 7 (blank circle), and SEQ ID NO: 8 (solid black triangle) is shown in FIG. 3.

The test system of test [1] is HPV-specific T-cell response (splenocytes). Description: IFN-g ELISPOT on splenocytes of vaccinated humanized HLA-A2 transgenic mice.
From the text: as §1
This example highlights the approach to evaluating T-cell responses using ELISPOT studies in humanized HLA-A2 transgenic mice. In these studies, the vaccine contained the selected peptide at a concentration of 0.1-3.0 mg/mL and cationic liposomes when used, at a concentration of 0.2-3.0 mg/mL. Humanized HLA-A2 transgenic mice having components of the human immune system capable of recognizing human antigens were vaccinated on day 0 and day 7 with 100 uL of the vaccine. On day 14 the mice were sacrificed and HPV-specific immune response evaluated by interferon-gamma ELISPOT using standard approaches with the splecocytes from the mice (4-8 per group). The splenocytes were stimulated with the specified CD8+ T-cell epitope peptides or the long multi-epitope peptides specified in Table 2. The number of IFN-g spots per million cells is listed for the specified examples. […] The ability of the humanized transgenic mice to successfully generate a T-cell immune response (>20 spots) when stimulated with each of the long multi-epitope peptides as well as short single epitope peptides confirms that the selected peptides are effectively processed and presented to T-cells. In these studies, un-stimulated splenocytes and splenocytes stimulated with irrelevant peptides were both used together as negative controls in every assay. For the positive control in the assay ConA was used.
The present study was performed to evaluate the effect of chemical modification of select peptides on immunogenicity and their ability to be processed, presented and to prime human CD8+ HPV-specific T-cell responses. Peptides corresponding to SEQ ID NO: 23 and 25 contain cysteines which upon oxidation lead to the formation of dimers and other multimers. Two vaccine formulations were prepared containing peptides corresponding to SEQ ID NO: 23 and 25.
In Formulation A: Both peptides were monomeric with high purity confirmed by HPLC analysis. The vaccine contained 1.5-1.6 mg/mL of each peptide.
In Formulation B: Significant oxidation and multimer formation of both peptides was confirmed by HPLC analysis.
Both formulations were mixed 1:1 with 5.8 mg/mL of R-DOTAP prior to vaccination.
The immunogenicity of the peptides was compared as described in the above examples in 10 HLA-A2 mice per formulation by evaluating the ability to induce CD8+ T-cells. ELISPOT studies were performed as described above.

In test [2] the test system is HPV-specific CD8+ T-cell induction (splenocytes). Description: ELISPOT in normal C57/B6 mice, peptide with other cationic lipids. The conditions noted are these: stimulated with RAHYNIVTF (SEQ ID NO: 1). As to the method: To determine if the identified long HPV16 peptides are compatible with other cationic lipids besides DOTAP, the peptide corresponding to SEQ ID NO: 26 was used as the model peptide in combination with two other cationic lipids DOTMA and DOEPC. To evaluate the ability of the peptides to effectively undergo processing and presentation, in the presence of both cationic lipids, an ELISPOT study was conducted using normal C57/B6 mice. ELISPOT studies were performed as described above and utilized to determine effective CD8+ T-cell induction.
In formulation 1, 1.35 mg/mL of DOTMA was mixed 1:1 v/v with 0.5 mg/mL of the peptide corresponding to SEQ ID NO: 26.
In formulation 2, 1.67 mg/mL of DOEPC was missed 1:1 v/v with 0.5 mg/mL of the peptide corresponding to SEQ ID NO: 26.
For each formulation 4 mice were vaccinated on Day 0 and Day 7. On Day 14 the mice were scarified and the splenocytes utilized in the ELISPOT study.

On to PalmKSS GQAEPDRAHYNIVTF [SEQ ID NO: 26], for which the “Immune Response, Method: tumor regression” value in the test on TC-1 tumor was “Positive tumor regression”. In addition, the “Immune Response, Method: ELISPOT” value in test [1] (HLA-A2 humanized transgenic mice, IFN-gamma ELISPOT) is listed as “Positive, ELISPOT (at least 20 spots per million splenocytes was regarded to be a positive response)”. In addition, the “ELISPOT result Av spots/10^6 cells” value in test [1] (splenocytes stimulated with GQAEPDRAHYNIVTF (SEQ ID NO: 5)) is listed as 1,544 spots/10^6 cells; in test [1] (splenocytes stimulated with RAHYNIVTF (SEQ ID NO: 1)), 1,552 spots/10^6 cells; in test [2] (formulated with DOEPC (formulation 2)), 243 spots/10^6 cells; in test [2] (formulated with DOTMA (formulation 1)), 988 spots/10^6 cells.

For the origin of these results see patent US11401306B2, “HPV16 non HLA-restricted t-cell vaccines, compositions and methods of use thereof” (priority 2016, dated 2022).
